Experimental data taken from patent US20250313555A1, “2-SUBSTITUTED THIAZOLE AND BENZOTHIAZOLE COMPOSITIONS AND METHODS AS DUX4 INHIBITORS” (ALTAY THERAPEUTICS, INC., priority 2022, published 2025).

Experiments:
Assay type in all cases: cell-based
[1] = system: MBD3L2 RNA; experiment: RNA isolation and qPCR to determine MBD3L2 RNA levels in FSHD cells; conditions: 48 hrs
Description: Protocol for RNA Isolation and qPCR to Determine MBD3L2 RNA Levels The protocol describes the process of isolating RNA from cultured cells, converting the RNA to complementary DNA (cDNA), and measuring target gene expression using a quantitative polymerase chain reaction (qPCR). The seed FSHD cells were dispensed into a six-well dish. One day after seeding, the DUX4 inhibitor (11 μM or 3.6 μM/well) was added to the cells. After another 48 hrs, the old media was removed from the cells. The cells were washed with 2 mL of warm phosphate buffered saline (PBS). The PBS was aspirated, and the cells were lysed in each well with 350 μL of RLT buffer+3.5 μL of beta-mercaptoethanol (BME). The lysates were added to fresh, RNAse-free, labeled Eppendorf tubes. The cells were then physically disrupted for […] at level 4 of the bead disrupter to ensure the release of the RNA. The RNA was collected according to standard procedures (i.e., Qiagen kit instructions) as discussed below. The RNA concentrations were standardized to […]. In a PCR tube, RNA (2 μg) in a new Eppendorf tube was diluted with RNase-free water to a 9.5 μL final volume of […] RNA. DNase was used to remove any DNA contamination. A DNase Master Mix was prepared from 1.5 μL/reaction DNase solution (1 unit/μL, Promega), 3 μL/reaction 5× RT buffer (i.e., 250 mM Tris-HCl (pH 8.3), 375 mM KCl, 15 mM MgCl2, and 500 μl 0.1 M DTT; Promega MMLV), and 1 μL/reaction RNase inhibitor solution (RNasin, 40 units/μL, Promega). The DNase Master Mix was added to the standardized RNA samples (5.5 μL/sample). The samples were mixed by agitation and briefly spun down by centrifuge. The samples were heated to 37° C. for 60 min, 80° C. for 5 min, and then cooled to 4° C. The samples were stored on ice until the addition of the next reagents. An RT Reaction Master Mix was prepared from 5 μL/reaction 5× RT buffer, 2 μL/reaction dNTP solution (2.5 mM in each nucleotide), 1 μL/reaction RNase inhibitor solution (RNasin, 40 units/μL, Promega), 1.6 μL/reaction M-MLV reverse transcriptase (200 units/μL, Promega), and 13.4 μL/reaction deionized, RNase-free water. The RT Reaction Master Mix was cooled on ice until use. A 50 μM solution of Random Primer 6 random hexanucleotides (2 μL) was added to each sample. The samples were mixed by agitation and briefly spun down by centrifuge. The samples were heated to 70° C. for 5 min and then cooled to 4° C. The RT Reaction Master Mix (23 μL) was added to each sample. The samples were mixed by agitation and briefly spun down by centrifuge. To convert the RNA to cDNA, the samples were heated to 42° C. for 60 min, 95° C. for 5 min, and then cooled to 4° C. The cDNA product mixture was diluted 5:1 with deionized water (40 μL+160 μL). The samples were run in triplicate, with a methyl-CpG-binding protein 3-like 2 (MBD3L2) target primer and a eukaryotic translation elongation factor 1-alpha (EEF1A) control primer. An qPCR Master Mix was prepared for each primer and stored on ice (4° C.) until use. The qPCR Master Mix included 10 μL/reaction SYBR Green Mix (2×) (ThermoFisher), 1 μL/reaction of the primer mix (i.e., the MBD3L2 PCR Primer mix or the EEF1A Primer mix), and 4 μL/reaction deionized, RNase-free water. To set up the qPCR plate, 15 μL of the appropriate qPCR Master Mix was added to the appropriate wells for each target/primer. After all the targets/primers have been added to the wells, 5 μL of the sample was added to the corresponding wells so that each well is 20 μL total. The plate was covered with a clear sheet. An qPCR run was set up (QuantStudio 5) with the following cycle: […]

[2] = Cell cytotoxicity 50 assay (CC50), MB200 cells, cell titer glo; conditions: human
Description: Cell Cytotoxicity 50 Assay Protocol (CC50) MB200 cells were grown until 80% confluent in F10 media supplemented with rhFGF basic (10 ng/ml), 15% fetal bovine serum, 1% penicillin streptomycin, 1% amphotericin B, and 1 μM dexamethasone. Adherent MB200 cells growing on 10 cm plate were then trypsinized with 1 ml of trypsin. Once the cells detached from the plate, F10 media (10 mL) was added, and the cells were strained through a 70 μm cell strainer. The cells were counted using a mixture of 10 μL cell suspension with 10 μL of trypan blue. Once the total number of cells were counted, a dilution of 200 k/mL was prepared, and the cells were seeded with 10 k cells/well in a 96-well plate in triplicate, making sure to avoid seeding cells in the edges of the plate to avoid edge effects. Using a multichannel pipet, the 200 k/mL cell dilution (50 μL/well) was added into wells B2-B11, C2-C11, and D2-D11 in triplicate. Into a deep well block (DWB), the media for the appropriate cell line (450 μL/well) was added into wells 1-10. Into DWB well 2, 10 mM of drug solution (13.5 μL) was added, followed by an additional volume of the medium (225 μL). The well was pipetted up/down four times. A portion (225 μL) was transferred to well 3, and this process was repeated up to well 10. Using a multichannel pipet, a smaller portion (50 μL/well) was removed from all wells in the DWB and then dispensed on top of the cells in each corresponding row. After adding the drug, the plate was incubated at 37° C. for 72 h. Using a multi-channel pipet, pre-warmed cell titer glo reagent (Promega) (100 μL) was added into every well. After 5 minutes, the total luminescence was measured with a luminometer. CC50 was determined with GraphPad prism template.

[3] = Cell cytotoxicity 50 assay (CC50), HEK cells; conditions: human
Description: Cell Cytotoxicity 50 Assay Protocol (CC50) Into a deep well block (DWB), the media for the appropriate cell line (450 μL/well) was added into wells 1-10. Into DWB well 2, 10 mM of drug solution (13.5 μL) was added, followed by an additional volume of the medium (225 μL). The well was pipetted up/down four times. A portion (225 μL) was transferred to well 3, and this process was repeated up to well 10. Using a multichannel pipet, a smaller portion (50 μL/well) was removed from all wells in the DWB and then dispensed on top of the cells in each corresponding row. After adding the drug, the plate was incubated at 37° C. for 72 h. Using a multi-channel pipet, pre-warmed cell titer glo reagent (Promega) (100 μL) was added into every well. After 5 minutes, the total luminescence was measured with a luminometer. CC50 was determined with GraphPad prism template.

Structure (SMILES) | qPCR MBD3L2 Inhib at 11 µM [1] | CC50 at 72 h [2] [µM] | CC50 at 72 h [3] [µM]
O=C(CCCCN1C(=O)CCC1=O)Nc1ccc(-c2nc3ccccc3s2)o1 [Compound 167] | YES | > 10 | > 10
O=C(CCCN1C(=O)CCC1=O)Nc1ccc(-c2nc3c(s2)CCCC3)cc1 [Compound 88] | YES | > 10 | > 10
CC(=O)NCCCCC(=O)Nc1ccc(-c2nc3ccccc3s2)o1 [Compound 175] | YES | > 10 | > 10
CC(=O)NCCCC(=O)Nc1ccc(C(C)(C)c2nc3ccccc3s2)cc1 [Compound 87] | YES | > 10 | > 10
O=C(CCCc1cocn1)Nc1ccc(-c2nc3cc(F)ccc3s2)cc1 [Compound 99] |  | > 10 | > 10
O=C(CCc1cccnc1)Nc1ccc(-c2nc3ccccc3s2)cc1 [Compound 13] | YES | > 10 | > 10
O=C(CCCc1cnco1)Nc1ccc(-c2nc3cc(F)ccc3s2)cc1 [Compound 64] | YES | > 10 | 1 to 10
CC(=O)NCCNC(=O)c1ccc(-c2nc3cc(F)ccc3s2)cc1 [Compound 30] | YES | > 10 | > 10
O=C(CCCN1C(=O)CCC1=O)Nc1nc2ccccc2s1 [Compound 82] |  | > 10 | > 10
CC(C)C(=O)NCCCC(=O)Nc1ccc(-c2nc3ccccc3s2)cc1 [Compound 31] | YES | > 10 | > 10
CC(=O)NCCCC(=O)Nc1ccc(-c2nc3ccccc3s2)c(C)c1 [Compound 129] | YES | > 10 | > 10
CC(=O)NCCCC(=O)Nc1ccc(-c2ncc(-c3ccccc3)s2)cc1 [Compound 132] |  | > 10 | > 10
CC(=O)NCCC(=O)Nc1ccc(-c2nc3cnccc3s2)cc1 [Compound 58] |  | > 10 | > 10
CC(=O)OCCCC(=O)Nc1ccc(-c2nc3ccccc3s2)cc1 [Compound 19] |  | > 10 | > 10
CC(=O)NCCC(=O)Nc1ccc(-c2nc3ccc(C)cc3s2)cc1 [Compound 35] |  | > 10 | > 10
CC(=O)NC1CC1C(=O)Nc1ccc(-c2nc3ccccc3s2)cc1 (stereo not drawn) [Compound 100] |  | > 10 | > 10
CC(=O)CCCC(=O)Nc1ccc(-c2nc3ccccc3s2)cc1 [Compound 20] |  | > 10 | > 10
O=C(CCn1ccnn1)Nc1ccc(-c2nc3ccccc3s2)cc1 [Compound 48] |  | > 10 | > 10
O=C1CCC(=O)N1[C@H]1C[C@H](C(=O)Nc2ccc(-c3nc4ccccc4s3)cc2)C1 [Compound 96] |  | > 10 | > 10
O=C(CCN1C(=O)CCC1=O)Nc1ccc(-c2nc3ccccc3s2)o1 [Compound 24] |  | > 10 | > 10

Structure (SMILES) | qPCR MBD3L2 Inhib at 11 µM [1] | CC50 at 72 h [2] [µM] | CC50 at 72 h [3] [µM]
CC(=O)NCCCC(=O)Nc1ccc(-c2nc3ccccc3s2)cc1C [Compound 125] |  | > 10 | > 10
O=C(CCCc1cnco1)Nc1ccc(-c2nc3ccccc3s2)cc1 [Compound 63] |  | > 10 | 1 to 10
CC(=O)NCCC(=O)Nc1coc(-c2nc3ccccc3s2)c1 [Compound 42] |  | > 10 | > 10
O=C(CCc1ccncc1)Nc1ccc(-c2nc3ccccc3s2)cc1 [Compound 12] |  | > 10 | > 10
CC(=O)NCCCC(=O)Nc1ccc(-c2ncc(Cl)s2)cc1 [Compound 78] |  | > 10 | > 10
CC(=O)NCCC(=O)Nc1ccc(-c2nc3ccc(F)cc3s2)cc1 [Compound 45] |  | > 10 | > 10
O=C(CCN1CCCC1=O)Nc1ccc(C(=O)c2nc3ccccc3s2)cc1 [Compound 50] |  | > 10 | > 10
O=C(CCc1ncccn1)Nc1ccc(-c2nc3ccccc3s2)cc1 [Compound 51] |  | > 10 | > 10
O=C(CCCc1cnco1)Nc1coc(-c2nc3ccccc3s2)c1 [Compound 68] |  | > 10 | > 10
Cc1ccc2nc(-c3ccc(NC(=O)CCN4C(=O)CCC4=O)cc3)sc2c1 [Compound 2] |  | 1 to 10 | > 10
CC(=O)CCCC(=O)Nc1ccc(-c2nc3ccc(C)cc3s2)cc1 [Compound 4] |  | > 10 | > 10
O=C(CCc1cocn1)Nc1ccc(-c2nc3ccccc3s2)cc1 [Compound 57] |  | > 10 | > 10
N#CCCCC(=O)Nc1ccc(-c2nc3ccccc3s2)cc1 [Compound 124] |  | > 10 | > 10
CCOCCCC(=O)Nc1ccc(-c2nc3ccc(C)cc3s2)cc1 [Compound 17] |  | 1 to 10 | 1 to 10
CCOCCCC(=O)Nc1ccc(-c2nc3ccccc3s2)cc1 [Compound 3] |  | 1 to 10 | 1 to 10
O=C(CCN1C(=O)CCC1=O)Nc1ccc(-c2nc3ccccc3s2)cn1 [Compound 6] |  | > 10 | > 10
CC(=O)NCCC(=O)Nc1ccc(-c2nc3cc(Cl)ccc3s2)cc1 [Compound 47] |  | > 10 | > 10
O=C(CCC1CCC(=O)N1)Nc1ccc(-c2nc3ccccc3s2)cc1 (stereo not drawn) [Compound 176] |  | 1 to 10 | > 10
O=C(CCCN1C(=O)CCC1=O)Nc1ccc(-c2nc3ccccc3s2)o1 [Compound 168] |  | > 10 | > 10
